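Five concentrations, 48 hours, 96-well plates. The concentration for 50% growth inhibition is given as GI50.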 Activity calls are given as the source filed them. Cut-off read from the data, not from the text of the source: active = GI50 up to about 1.1 µM and inactive = higher.
Columns and labels:
Assay in all cases: NCI tumour cell line growth inhibition, 48 h
DMS-273 = test system: DMS-273
SK-MEL-28 = test system: SK-MEL-28
RPMI-8226 = test system: RPMI-8226
SW-620 = test system: SW-620
U-251 = test system: U-251
SF-295 = test system: SF-295
MOLT-4 = test system: MOLT-4
IGROV-1 = test system: IGROV-1
UACC-62 = test system: UACC-62
SF-539 = test system: SF-539
OVCAR-4 = test system: OVCAR-4
OVCAR-8 = test system: OVCAR-8
HCC 2998 = test system: HCC 2998
LOX IMVI = test system: LOX IMVI
ACHN = test system: ACHN
HL-60 = test system: HL-60
K562 = test system: K562
NCI-H23 = test system: NCI-H23
SN12C = test system: SN12C
UO-31 = test system: UO-31
COLO 205 = test system: COLO 205
HOP-18 = test system: HOP-18
LXFL 529 = test system: LXFL 529
SK-MEL-5 = test system: SK-MEL-5
TK-10 = test system: TK-10
SF-268 = test system: SF-268
HOP-92 = test system: HOP-92
A498 = test system: A498
RXF 393 = test system: RXF 393
A549 = test system: A549
HOP-62 = test system: HOP-62
HCT-15 = test system: HCT-15
786-0 = test system: 786-0
KM12 = test system: KM12
SNB-75 = test system: SNB-75
SK-MEL-2 = test system: SK-MEL-2
CCRF-CEM = test system: CCRF-CEM
Malme-3M = test system: Malme-3M
SK-OV-3 = test system: SK-OV-3
NCI-H460 = test system: NCI-H460
HT-29 = test system: HT-29
M19-MEL = test system: M19-MEL
SNB-19 = test system: SNB-19
OVCAR-3 = test system: OVCAR-3
CAKI-1 = test system: CAKI-1
NCI-H522 = test system: NCI-H522
M14 = test system: M14
SR = test system: SR
OVCAR-5 = test system: OVCAR-5
DLD-1 = test system: DLD-1
HCT-116 = test system: HCT-116
KM-20L2 = test system: KM-20L2
EKVX = test system: EKVX
NCI-H226 = test system: NCI-H226
UACC-257 = test system: UACC-257
MDA-MB-435 = test system: MDA-MB-435
T47D = test system: T47D
BT-549 = test system: BT-549
MDA-MB-231 = test system: MDA-MB-231
NCI/ADR-RES = test system: NCI/ADR-RES
MCF7 = test system: MCF7
MDA-N = test system: MDA-N
Hs-578T = test system: Hs-578T
PC-3 = test system: PC-3
DU-145 = test system: DU-145

SMILES: Nc1ccccc1N
- GI50 (DMS-273): > 100 µM (inactive)
- GI50 (SK-MEL-28): > 100 µM (inactive)
- GI50 (RPMI-8226): 32 µM (inactive)
- GI50 (SW-620): > 100 µM (inactive)
- GI50 (U-251): > 100 µM (inactive)
- GI50 (SF-295): > 100 µM (inactive)
- GI50 (MOLT-4): 36.7 µM (inactive)
- GI50 (IGROV-1): > 100 µM (inactive)
- GI50 (UACC-62): > 100 µM (inactive)
- GI50 (SF-539): > 100 µM (inactive)
- GI50 (OVCAR-4): > 100 µM (inactive)
- GI50 (OVCAR-8): > 100 µM (inactive)
- GI50 (HCC 2998): > 100 µM (inactive)
- GI50 (LOX IMVI): > 100 µM (inactive)
- GI50 (ACHN): > 100 µM (inactive)
- GI50 (HL-60): 25.6 µM (inactive)
- GI50 (K562): > 100 µM (inactive)
- GI50 (NCI-H23): > 100 µM (inactive)
- GI50 (SN12C): > 100 µM (inactive)
- GI50 (UO-31): > 100 µM (inactive)
- GI50 (COLO 205): > 100 µM (inactive)
- GI50 (HOP-18): > 100 µM (inactive)
- GI50 (LXFL 529): > 100 µM (inactive)
- GI50 (SK-MEL-5): > 100 µM (inactive)
- GI50 (TK-10): > 100 µM (inactive)
- GI50 (SF-268): > 100 µM (inactive)
- GI50 (HOP-92): > 100 µM (inactive)
- GI50 (A498): > 100 µM (inactive)
- GI50 (RXF 393): > 100 µM (inactive)
- GI50 (A549): > 100 µM (inactive)
- GI50 (HOP-62): > 100 µM (inactive)
- GI50 (HCT-15): > 100 µM
- GI50 (786-0): > 100 µM (inactive)
- GI50 (KM12): > 100 µM (inactive)
- GI50 (SNB-75): > 100 µM (inactive)
- GI50 (SK-MEL-2): > 100 µM (inactive)
- GI50 (CCRF-CEM): 21.1 µM (inactive)
- GI50 (Malme-3M): > 100 µM (inactive)
- GI50 (SK-OV-3): > 100 µM (inactive)
- GI50 (NCI-H460): > 100 µM (inactive)
- GI50 (HT-29): > 100 µM (inactive)
- GI50 (M19-MEL): > 100 µM (inactive)
- GI50 (SNB-19): > 100 µM (inactive)
- GI50 (OVCAR-3): > 100 µM (inactive)
- GI50 (CAKI-1): > 100 µM (inactive)
- GI50 (NCI-H522): 15.5 µM (inactive)
- GI50 (M14): > 100 µM (inactive)
- GI50 (SR): 32.9 µM (inactive)
- GI50 (OVCAR-5): > 100 µM (inactive)
- GI50 (DLD-1): > 100 µM (inactive)
- GI50 (HCT-116): > 100 µM (inactive)

SMILES: C/C(=N\NC(=O)c1cccnc1)c1cccc(/C(C)=N/NC(=O)c2cccnc2)n1.CC(=O)[O-].CC(=O)[O-].[Zn+2]
- GI50 (RPMI-8226): 6.21 µM (inactive)
- GI50 (SW-620): 3.54 µM (inactive)
- GI50 (U-251): 1.03 µM (active)
- GI50 (SF-295): 2.74 µM (inactive)
- GI50 (UACC-62): 2.25 µM (inactive)
- GI50 (SF-539): 1.57 µM (inactive)
- GI50 (OVCAR-4): 0.504 µM (active)
- GI50 (OVCAR-8): 1.62 µM (inactive)
- GI50 (LOX IMVI): 1.62 µM (inactive)
- GI50 (ACHN): 1.52 µM (inactive)
- GI50 (NCI-H23): 4.01 µM (inactive)
- GI50 (SN12C): 4.9 µM (inactive)
- GI50 (UO-31): 2.72 µM (inactive)
- GI50 (TK-10): 5.65 µM (inactive)
- GI50 (SF-268): 0.668 µM (active)
- GI50 (KM-20L2): 1.67 µM (inactive)
- GI50 (RXF 393): 3.01 µM (inactive)
- GI50 (A549): 3.91 µM (inactive)
- GI50 (HOP-62): 1.45 µM (inactive)
- GI50 (EKVX): 2.86 µM (inactive)
- GI50 (NCI-H226): 2.31 µM (inactive)
- GI50 (HCT-15): 2.26 µM
- GI50 (786-0): 4.43 µM (inactive)
- GI50 (KM12): 3.3 µM (inactive)
- GI50 (SK-OV-3): 2.22 µM (inactive)
- GI50 (NCI-H460): 4.31 µM (inactive)
- GI50 (M19-MEL): 8.45 µM (inactive)
- GI50 (SNB-19): 2.86 µM (inactive)
- GI50 (CAKI-1): 2.64 µM (inactive)
- GI50 (M14): 4.46 µM (inactive)
- GI50 (UACC-257): 5.41 µM (inactive)
- GI50 (OVCAR-5): 4.13 µM (inactive)
- GI50 (DLD-1): 1.68 µM (inactive)

SMILES: Oc1ccc2ccccc2c1/C=C/c1ccc2c(Br)cc(Br)c(O)c2n1
- GI50 (SK-MEL-28): 12.8 µM (inactive)
- GI50 (RPMI-8226): 4.06 µM (inactive)
- GI50 (SW-620): 4.9 µM (inactive)
- GI50 (U-251): 4.54 µM (inactive)
- GI50 (MDA-MB-435): 11.8 µM (inactive)
- GI50 (SF-295): 4.32 µM (inactive)
- GI50 (MOLT-4): 1.59 µM (inactive)
- GI50 (IGROV-1): 2.17 µM (inactive)
- GI50 (UACC-62): 6.01 µM (inactive)
- GI50 (SF-539): 2.53 µM (inactive)
- GI50 (OVCAR-4): 9.82 µM (inactive)
- GI50 (T47D): 11.6 µM (inactive)
- GI50 (BT-549): 12.3 µM (inactive)
- GI50 (OVCAR-8): 3.57 µM (inactive)
- GI50 (HCC 2998): 6.97 µM (inactive)
- GI50 (LOX IMVI): 2.6 µM (inactive)
- GI50 (ACHN): 5.6 µM (inactive)
- GI50 (HL-60): 2.87 µM (inactive)
- GI50 (MDA-MB-231): 5.58 µM (inactive)
- GI50 (K562): 3.11 µM (inactive)
- GI50 (NCI-H23): 5.96 µM (inactive)
- GI50 (NCI/ADR-RES): 2.41 µM (inactive)
- GI50 (SN12C): 5.04 µM (inactive)
- GI50 (UO-31): 4.05 µM (inactive)
- GI50 (COLO 205): 4.86 µM (inactive)
- GI50 (SK-MEL-5): 3.36 µM (inactive)
- GI50 (TK-10): 11 µM (inactive)
- GI50 (SF-268): 5.87 µM (inactive)
- GI50 (HOP-92): 11.5 µM (inactive)
- GI50 (A498): 5.64 µM (inactive)
- GI50 (MCF7): 1.24 µM (inactive)
- GI50 (RXF 393): 8.61 µM (inactive)
- GI50 (A549): 4.74 µM (inactive)
- GI50 (HOP-62): 8.17 µM (inactive)
- GI50 (EKVX): 3.11 µM (inactive)
- GI50 (NCI-H226): 5.02 µM (inactive)
- GI50 (MDA-N): 9.71 µM (inactive)
- GI50 (HCT-15): 0.787 µM
- GI50 (786-0): 5.2 µM (inactive)
- GI50 (KM12): 5.4 µM (inactive)
- GI50 (SNB-75): 15.2 µM (inactive)
- GI50 (SK-MEL-2): 8.34 µM (inactive)
- GI50 (CCRF-CEM): 2.38 µM (inactive)
- GI50 (Malme-3M): 12.7 µM (inactive)
- GI50 (Hs-578T): 12.6 µM (inactive)
- GI50 (SK-OV-3): 9.4 µM (inactive)
- GI50 (NCI-H460): 1.75 µM (inactive)
- GI50 (HT-29): 9.73 µM (inactive)
- GI50 (PC-3): 4.57 µM (inactive)
- GI50 (SNB-19): 6.73 µM (inactive)
- GI50 (OVCAR-3): 2.49 µM (inactive)
- GI50 (CAKI-1): 11 µM (inactive)
- GI50 (NCI-H522): 3.56 µM (inactive)
- GI50 (M14): 7.38 µM (inactive)
- GI50 (UACC-257): 8.49 µM (inactive)
- GI50 (SR): 3.12 µM (inactive)
- GI50 (OVCAR-5): 7.76 µM (inactive)
- GI50 (DU-145): 12 µM (inactive)
- GI50 (HCT-116): 2.96 µM (inactive)

Reference: ChEMBL document CHEMBL1201862, “PubChem BioAssay data set” (2004)
